Some results are limits rather than exact numbers.

The assay has as its system UMUC-10 cell line. The assay is described as follows: Cell viability (CELLTITER-GLO) of bladder cancer cell line treated with erlotinib. It is filed as cell-based. The note with it: UMUC-10 bladder cancer cell line; 72 hours; 3-fold dilution series starting with a 5 uM dose; FIG. 11G. The source says: Bladder cancer cell lines were obtained from the American Type Culture Collection (ATCC, Manassas, Va.) or from the Deutsche Sammlung von Mikroorganismen and Zellkulturen GmbH (DSMZ, Braunschweig, Germany). Cell lines were archived at an early passage in the Genentech cell bank and authenticated either by a multiplex short tandem repeat assay or as previously described (O'Brien et al. Clin. Cancer Res. 16(14): 3670-3683, 2010). All cell lines were maintained in RPMI 1640 or DMEM supplemented with 10% fetal bovine serum (Sigma, St. Louis, Mo.), nonessential amino acids, and 2 mmol/L L-glutamine.
Details of its structure, selectivity, and biological properties have been previously described (Stamos et al. J. Biol. Chem. 277(48): 46265-46272, 2002). Cell viability studies were carried out as previously described (O'Brien et al. Clin. Cancer Res. 16(14): 3670-3683, 2010). Cells were plated in quadruplicate at a density of 2,500 cells per well in 384-well plates in normal growth medium and allowed to adhere overnight. […] Cell viability was measured 72 hours later using the […]-GLO® Luminescent Cell Viability Assay (Promega, Madison, Wis.). The percent viability at each concentration was calculated compared to the control treated only with DMSO.
For orientation: In ATP-based viability assays light output follows the ATP content of the culture.

Take `C#Cc1cccc(Nc2ncnc3cc(OCCOC)c(OCCOC)cc23)c1` [erlotinib, [6,7-bis(2-methoxyethoxy)-4-quinazolin-4-yl]-(3-ethynylphenyl) amine]: the “growth inhibition (GI)” value is listed as > 25%.
